Assay results reported in PubChem BioAssay (NCI).
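Grown in 96-well plates, cells were treated for 48 hours with each compound at five concentrations. Insufficient inhibition: endpoint recorded as highest concentration tested. TGI: total growth inhibition.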

What was measured:
Test in all cases: growth of human tumour cells (NCI), 48 h
U251 CNS = tested on: U251 CNS
NCI-H522 lung = tested on: NCI-H522 lung
CAKI-1 renal = tested on: CAKI-1 renal
IGROV1 ovarian = tested on: IGROV1 ovarian
ACHN renal = tested on: ACHN renal
MDA-N = tested on: MDA-N
RPMI-8226 leukemia = tested on: RPMI-8226 leukemia
HS 578T breast = tested on: HS 578T breast
SF-295 CNS = tested on: SF-295 CNS
NCI-H23 lung = tested on: NCI-H23 lung
SW-620 colon = tested on: SW-620 colon
MALME-3M melanoma = tested on: MALME-3M melanoma
DU-145 prostate = tested on: DU-145 prostate
UACC-62 melanoma = tested on: UACC-62 melanoma
UACC-257 melanoma = tested on: UACC-257 melanoma
OVCAR-4 ovarian = tested on: OVCAR-4 ovarian
SF-268 CNS = tested on: SF-268 CNS
K-562 leukemia = tested on: K-562 leukemia
OVCAR-8 ovarian = tested on: OVCAR-8 ovarian
MOLT-4 leukemia = tested on: MOLT-4 leukemia
SN12C renal = tested on: SN12C renal
M14 melanoma = tested on: M14 melanoma
HCT-15 colon = tested on: HCT-15 colon
LOX IMVI melanoma = tested on: LOX IMVI melanoma
SR leukemia = tested on: SR leukemia
UO-31 renal = tested on: UO-31 renal
SNB-75 CNS = tested on: SNB-75 CNS
HCT-116 colon = tested on: HCT-116 colon
SK-MEL-28 melanoma = tested on: SK-MEL-28 melanoma
A549 NSCLC = tested on: A549 NSCLC
MCF7 breast = tested on: MCF7 breast
RXF 393 renal = tested on: RXF 393 renal
HT29 colon = tested on: HT29 colon
KM12 colon = tested on: KM12 colon
NCI/ADR-RES ovarian = tested on: NCI/ADR-RES ovarian
MDA-MB-231 breast = tested on: MDA-MB-231 breast
TK-10 renal = tested on: TK-10 renal
OVCAR-5 ovarian = tested on: OVCAR-5 ovarian
SNB-19 CNS = tested on: SNB-19 CNS
SK-MEL-2 melanoma = tested on: SK-MEL-2 melanoma
PC-3 prostate = tested on: PC-3 prostate
EKVX NSCLC = tested on: EKVX NSCLC
CCRF-CEM leukemia = tested on: CCRF-CEM leukemia
786-0 renal = tested on: 786-0 renal
NCI-H460 lung = tested on: NCI-H460 lung
SK-OV-3 ovarian = tested on: SK-OV-3 ovarian
MDA-MB-435 = tested on: MDA-MB-435
SK-MEL-5 melanoma = tested on: SK-MEL-5 melanoma
HOP-62 NSCLC = tested on: HOP-62 NSCLC
BT-549 breast = tested on: BT-549 breast
SF-539 CNS = tested on: SF-539 CNS
NCI-H226 lung = tested on: NCI-H226 lung
HL-60(TB) leukemia = tested on: HL-60(TB) leukemia
OVCAR-3 ovarian = tested on: OVCAR-3 ovarian
HOP-92 NSCLC = tested on: HOP-92 NSCLC
A498 renal = tested on: A498 renal
HCC-2998 colon = tested on: HCC-2998 colon
T-47D breast = tested on: T-47D breast
COLO 205 colon = tested on: COLO 205 colon

Measured: TGI

COC[C@@H](N=Cc1ccc([N+](=O)[O-])cc1)C(C)C
not listed: SK-MEL-5 melanoma | HOP-62 NSCLC | BT-549 breast | SF-539 CNS | NCI-H226 lung | HL-60(TB) leukemia | OVCAR-3 ovarian | HOP-92 NSCLC | A498 renal | HCC-2998 colon | T-47D breast | COLO 205 colon
> 100 µM: all other assays above

O=C1NC(=O)C(C(CC(=O)c2ccc(Cl)cc2)c2ccc(Cl)cc2)C(=O)N1 (stereo unspecified)
7.63 µM: MALME-3M melanoma
44.2 µM: MCF7 breast
not listed: CAKI-1 renal | RXF 393 renal | NCI/ADR-RES ovarian | TK-10 renal | SK-OV-3 ovarian | T-47D breast | COLO 205 colon
> 100 µM: all other assays above

Cc1ccc(S(=O)(=O)Nc2nnc(S(N)(=O)=O)s2)cc1
not listed: IGROV1 ovarian | SNB-75 CNS | HT29 colon | PC-3 prostate | CCRF-CEM leukemia | SF-539 CNS | HL-60(TB) leukemia
> 100 µM: all other assays above

c1ccc2c(c1)SCCCSCCSCCCS2
not listed: CAKI-1 renal | ACHN renal | RPMI-8226 leukemia | HS 578T breast | MALME-3M melanoma | RXF 393 renal | SK-MEL-2 melanoma | NCI-H226 lung | A498 renal
> 100 µM: all other assays above
